Our source for the IC50 values is BindingDB's records for doi:10.1016/j.bioorg.2015.09.008 (Gc University, 2015).

The target in one experiment is Alpha-glucosidase MAL12 (Saccharomyces cerevisiae (strain ATCC 204508 / S288c), UniProt P53341). Briefly: α-Glucosidase Assay. The settings on record: pH 6.8.
The target in a further experiment is Acetylcholinesterase (Electrophorus electricus, UniProt O42275). Briefly: AChE and BChE Assay. The settings on record: pH 7.7. The protocol:
(§1) The AChE inhibition assay was performed according to the Ellman's method. Total volume of 100 µL reaction mixture contained 60 µL 50 mM Na2HPO4 buffer, pH 7.7. Ten µL test compound (0.5 mM well#1) was added, followed by the addition of10 µL (0.005 unit well#1 AChE, 0.5 unit well#1 BChE, Sigma Inc.) enzyme. […] The reaction was initiated by the addition of 10 µL of 0.5 mM well#1 substrate (acetylthiocholine iodide or butyrylthiocholine chloride, Sigma Inc.), followed bythe addition of 10 µL DTNB from Sigma Inc. (0.5 mM well#1). After 15 min of incubation at 37 °C, absorbance was measured using 96-well plate reader Synergy HT, Biotek, USA. All experiments were carried out with their respective controls in triplicate.

In a further experiment the target is Cholinesterase (Homo sapiens, UniProt P06276). Nature of the experiment: AChE and BChE Assay. The settings on record: pH 7.7. The protocol: as §1
Chain of Cholinesterase (P06276 whole entry): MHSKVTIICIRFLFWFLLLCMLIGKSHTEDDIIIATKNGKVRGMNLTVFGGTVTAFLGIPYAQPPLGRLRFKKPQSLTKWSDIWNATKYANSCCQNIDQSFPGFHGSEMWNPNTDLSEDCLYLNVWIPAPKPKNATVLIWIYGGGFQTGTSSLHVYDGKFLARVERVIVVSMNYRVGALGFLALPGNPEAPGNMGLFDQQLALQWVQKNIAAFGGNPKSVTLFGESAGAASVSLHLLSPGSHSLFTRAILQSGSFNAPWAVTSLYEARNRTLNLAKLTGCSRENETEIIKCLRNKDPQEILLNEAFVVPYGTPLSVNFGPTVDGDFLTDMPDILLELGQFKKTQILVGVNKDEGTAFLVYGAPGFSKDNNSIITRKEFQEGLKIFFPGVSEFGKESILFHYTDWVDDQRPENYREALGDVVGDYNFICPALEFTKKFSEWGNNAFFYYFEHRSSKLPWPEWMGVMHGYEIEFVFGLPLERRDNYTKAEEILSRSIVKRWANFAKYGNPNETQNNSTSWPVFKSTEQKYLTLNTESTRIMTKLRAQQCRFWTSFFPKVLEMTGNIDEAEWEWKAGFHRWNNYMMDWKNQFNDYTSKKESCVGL

Chain of Acetylcholinesterase (O42275 whole entry): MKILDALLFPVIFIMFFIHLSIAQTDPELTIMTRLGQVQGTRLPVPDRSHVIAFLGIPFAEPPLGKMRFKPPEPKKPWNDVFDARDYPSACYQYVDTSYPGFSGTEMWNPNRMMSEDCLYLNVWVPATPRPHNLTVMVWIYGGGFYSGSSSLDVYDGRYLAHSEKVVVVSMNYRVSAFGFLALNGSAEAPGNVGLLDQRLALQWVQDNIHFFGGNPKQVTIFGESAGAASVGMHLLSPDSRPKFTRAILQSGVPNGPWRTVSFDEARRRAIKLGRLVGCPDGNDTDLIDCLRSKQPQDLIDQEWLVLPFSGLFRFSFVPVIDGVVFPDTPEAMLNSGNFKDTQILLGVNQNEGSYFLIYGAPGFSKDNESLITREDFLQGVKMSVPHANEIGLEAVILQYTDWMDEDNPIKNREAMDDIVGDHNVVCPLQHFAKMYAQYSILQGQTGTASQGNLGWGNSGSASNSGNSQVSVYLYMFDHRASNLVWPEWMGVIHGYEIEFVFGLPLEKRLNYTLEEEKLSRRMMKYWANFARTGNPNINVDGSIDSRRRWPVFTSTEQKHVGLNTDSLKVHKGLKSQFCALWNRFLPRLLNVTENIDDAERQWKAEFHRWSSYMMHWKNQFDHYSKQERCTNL
Chain of Alpha-glucosidase MAL12 (P53341 whole entry): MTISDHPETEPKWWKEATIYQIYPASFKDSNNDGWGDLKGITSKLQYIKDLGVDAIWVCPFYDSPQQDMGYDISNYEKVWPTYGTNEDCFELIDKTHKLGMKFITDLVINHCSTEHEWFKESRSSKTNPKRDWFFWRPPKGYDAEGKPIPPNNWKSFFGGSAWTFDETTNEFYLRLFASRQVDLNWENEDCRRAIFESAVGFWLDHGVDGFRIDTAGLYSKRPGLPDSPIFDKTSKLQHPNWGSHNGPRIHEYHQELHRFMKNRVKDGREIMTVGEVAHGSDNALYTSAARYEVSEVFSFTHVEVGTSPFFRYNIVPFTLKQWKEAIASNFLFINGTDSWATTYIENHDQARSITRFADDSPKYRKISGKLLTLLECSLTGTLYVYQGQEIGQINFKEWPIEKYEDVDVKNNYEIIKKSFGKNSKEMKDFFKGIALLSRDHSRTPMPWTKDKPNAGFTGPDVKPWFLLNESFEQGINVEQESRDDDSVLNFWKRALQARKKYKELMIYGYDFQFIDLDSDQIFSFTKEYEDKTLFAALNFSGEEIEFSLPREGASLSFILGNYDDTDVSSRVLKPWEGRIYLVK
Protocol for Alpha-glucosidase MAL12: The α-glucosidase inhibition activity was performed with slight modifications according to method. […] Thecontents were mixed, preincubated for 10 min at 37 °C and preread at 400 nm. The reaction was initiated by the addition of 10 µL of 0.5 mM substrate (p-nitrophenyl glucopyranoside, Sigma Inc.). After 30 min of incubation at 37 °C, absorbance of the yellow color produced due to the formation of p-nitrophenol was measured at 400 nm using Synergy HT (BioTek, USA) 96-well microplate reader. Acarbose was used as positive control.

The term IC50 denotes the concentration needed to halve the response being measured. As to `O=C(NNS(=O)(=O)c1ccccc1)c1cc(C(=O)NNS(=O)(=O)c2ccccc2)nc(C(=O)NNS(=O)(=O)c2ccccc2)c1` [N',N'',N'''-(pyridine-2,4,6-tricarbonyl)tribenzenesulfonohydrazide (4a)], the IC50 against Alpha-glucosidase MAL12 turned out to be 32.2 µM; at Acetylcholinesterase, 50.2 µM; at Cholinesterase it was 43.8 µM.

`CCS(=O)(=O)NNC(=O)c1cc(C(=O)NNS(=O)(=O)CC)nc(C(=O)NNS(=O)(=O)CC)c1` [N',N'',N'''-(pyridine-2,4,6-tricarbonyl)triethanesulfonohydrazide (4h)]: the IC50 was found to be 29.1 µM at Acetylcholinesterase and 112 µM at Cholinesterase.

Regarding `CS(=O)(=O)NNC(=O)c1cc(C(=O)NNS(C)(=O)=O)nc(C(=O)NNS(C)(=O)=O)c1` [N',N'',N'''-(pyridine-2,4,6-tricarbonyl)trimethanesulfonohydrazide (4g)], the values for the IC50 on Acetylcholinesterase and on Cholinesterase were 10.8 µM and 44.8 µM, respectively.

For the compound `O=C(NNS(=O)(=O)c1ccc(Br)cc1)c1cc(C(=O)NNS(=O)(=O)c2ccc(Br)cc2)nc(C(=O)NNS(=O)(=O)c2ccc(Br)cc2)c1` [N',N'',N'''-(pyridine-2,4,6-tricarbonyl)tris(4-bromobenzenesulfonohydrazide) (4b)], the IC50 on Alpha-glucosidase MAL12 came to 26.8 µM.

As to `O=C(NNS(=O)(=O)c1ccc(Cl)cc1)c1cc(C(=O)NNS(=O)(=O)c2ccc(Cl)cc2)nc(C(=O)NNS(=O)(=O)c2ccc(Cl)cc2)c1` [N',N'',N'''-(pyridine-2,4,6-tricarbonyl)tris(4-chlorobenzenesulfonohydrazide (4d)], the IC50 on Alpha-glucosidase MAL12 amounted to 28.8 µM.

Regarding `O=C(NNS(=O)(=O)c1ccc(F)cc1)c1cc(C(=O)NNS(=O)(=O)c2ccc(F)cc2)nc(C(=O)NNS(=O)(=O)c2ccc(F)cc2)c1` [N',N'',N'''-(pyridine-2,4,6-tricarbonyl)tris(4-fluorobenzenesulfonohydrazide (4c)], on Alpha-glucosidase MAL12, the midpoint of inhibition, the IC50, lay at 25.6 µM.

On Alpha-glucosidase MAL12, `Cc1ccc(S(=O)(=O)NNC(=O)c2cc(C(=O)NNS(=O)(=O)c3ccc(C)cc3)nc(C(=O)NNS(=O)(=O)c3ccc(C)cc3)c2)cc1` [N',N'',N'''-(pyridine-2,4,6-tricarbonyl)tris(4-methylbenzenesulfonohydrazide) (4e)] returned an IC50 of 125 µM.
